The text below walks through data of patent US20200023206A1, “SYSTEMS AND METHODS FOR ULTRASOUND MODULATION OF NEURONS” (THE TRUSTEES OF COLUMBIA UNIVERSITY IN THE CITY OF NEW YORK, priority 2016, published 2020).

The subject of assay [1] is ultrasound-induced currents in HEK cells. The assay can be described thus: Sodium substitution with NMDG on ultrasound-induced currents (patch clamp). Type of assay: cell-based. The following applies: N=5 cells. The text has this:
FIGS. 21A-21B are diagrams illustrating exemplary effects of sodium substitution with N-methyl-d-glucamine (NMDG) on ultrasound-induced currents. FIG. 21A illustrates representative examples of ultrasound-induced currents in control solution (Ringers), NMDG-Ringers (without sodium), and in Ringers washout (black, first stimulus; blue, second; red, third). As embodied herein, the cell was held at −90 mV. Ultrasound stimulation parameters were 3.1 MHz, 1.88 MPa, 25 μs, 1 stimulus, 30 s intervals. FIG. 21B illustrates NMDG substitution on ultrasound-induced currents (N=5 cells). As embodied herein, responses to three stimulus presentations per condition were averaged and normalized to the mean amplitude in the control condition for each cell. Cells were held at −90 mV. […] Additionally or alternatively, and as embodied herein, an extracellular cation, such as sodium, can be used to mediate US-induced inward currents. For example and not limitation, as embodied herein, cells were stimulated with US, first in Ringers solution (with sodium), then in an N-methyl-d-glucamine (NMDG)-based Ringer solution (without sodium). NMDG can be utilized at least in part because most mammalian cation channels can be impermeable to this large cation. As embodied herein, each cell was stimulated with US five times at −90 and +30 mV alternatively. The same stimuli were applied 10 minutes following NMDG replacement of sodium and 10 minutes following washout with Ringers (with sodium). […] The first three responses were used to calculate the mean amplitude of the responses in each condition. With reference to FIGS. 21A and 21B, in 4/5 cells, a reduction in US-activated currents with NMDG substitution was shown; however, in most cases, the effect was not reversible, as shown for example in FIG. 21B. This can be due at least in part because NMDG was not effectively washed out of chamber during the washout period (˜10 minutes). Additionally or alternatively, the lack of reversibility can indicate cellular rundown over the course of the stimulations.
A general note: Patch clamp records ionic current or voltage across a cell membrane.

Assay [2] relates to ultrasound-induced whole-cell currents in HEK cells. The assay is described as follows: Ruthenium red on ultrasound-induced whole-cell currents (patch clamp, Chamber B+laser). The following applies: RR 10 μM. The class given is cell-based. The text has this:
FIGS. 20A-20D are diagrams illustrating ruthenium red (RR) on ultrasound (US)-induced currents. FIG. 20A illustrates representative examples of ultrasound-induced currents before (control), during (ruthenium red), and after (washout) RR treatment (black, first stimulus; blue, second; red, third). As embodied herein, cell was held at −90 mV. Ultrasound stimulation parameters were 3.1 MHz, 1.6 MPa, 25 μs, 1 stimulus, 30 s intervals. FIG. 20B illustrates additional representative examples of ultrasound-induced currents with RR treatment. As embodied herein, cell was held at −90 mV. Ultrasound stimulation parameters were the same as FIG. 20A, except the pressure was 1.27 MPa. FIG. 20C illustrates a summary of the drug effects of ruthenium red on ultrasound-induced currents (N=5 cells). As embodied herein, responses to three stimulus presentations per condition were averaged and normalized to the mean amplitude in the control condition for each cell. Experiments were done at −70 mV or −90 mV holding potential. FIG. 20D illustrates HEK cells grouped into two populations according to ultrasound activation thresholds and ruthenium red sensitivity.
For purpose of illustration and not limitation, as embodied herein, system 1700 can be used to measure the pharmacological profile of the ultrasound-induced currents in HEK cells. Ruthenium red (RR) can be used to block non-selective cation channels, including the mechanically activated ion channels Piezol, Piezo2, as well as some TRP channels (TRPA1, TRPV3, TRPV4, TRPV5, TRPV6). As embodied herein, RR (10 μM) can block ultrasound-induced whole-cell currents in HEK cells. For example and not limitation, as embodied herein, each cell was stimulated with ultrasound five times at both −90 mV (or −70 mV) and +30 mV (or +50 mV) alternatively. The same stimulation was applied 10 minutes after RR wash-in and 10 minutes after the RR washout, respectively. […]

The structures appear in SMILES notation. Several values for one entry are separate records, joined by “and”; a condition that tells them apart may be missing. Equal values may be shown once. Entries after “also recorded” stand apart in the source; their conditions may differ.

For the compound `CNC[C@H](O)[C@@H](O)[C@H](O)[C@H](O)CO` [NMDG, N-methyl-d-glucamine], in assay [1] (NMDG-Ringers without sodium, 10 minutes after replacement, held at -90 mV), the “cells showing reduction in US-activated currents with NMDG substitution” value was “Four and 4/5”. In addition, the “cells showing increased response following NMDG replacement” value in assay [1] (NMDG-Ringers without sodium, held at -90 mV) is “one”. Further, the “effect of replacement of sodium with NMDG on ultrasound-induced currents” value in assay [1] (un-normalized data, P=0.16 paired t test, -90 mV) is listed as “did not show significant effect”.

Take `N.N.N.N.N.N.N.N.N.N.N.N.N.N.[Cl-].[Cl-].[Cl-].[Cl-].[Cl-].[Cl-].[O-2].[O-2].[Ru+3].[Ru+3].[Ru+4]` [RR, Ruthenium red]: the “effect on ultrasound-induced whole-cell currents” value in assay [2] (10 minutes after wash-in, held at -90 mV or -70 mV, N=5 cells) is given as “can block; also recorded: varying effects”. Also, in assay [2] (N=5 cells analysed), the “number of cells showing enhanced US-induced currents in the presence of RR” value is recorded as “two” and the “number of cells showing reduced US-evoked currents in the presence of RR” value is reported as “Three”.
